Assay results: ChEMBL document CHEMBL3997776, “Oxime Ethers of (E)-11-Isonitrosostrychnine as Highly Potent Glycine Receptor Antagonists” (J Nat Prod, 2016)
Substitutions are numbered along the chain they refer to.

Key:
[1] = target: T1, Glycine receptor (alpha-1/beta) (Homo sapiens, UniProt P23415+P48167); assay: Antagonist activity at recombinant human glycine receptor alpha 1 beta expressed in human tsA201 cells assessed as inhibition of glycine-induced receptor activation after 30 mins by FLIPR membrane potential blue assay; type: cell-based
[2] = target: T2, Glycine receptor subunit alpha-1 (Rattus norvegicus, UniProt P07727)
T2 sequence (P07727 whole entry): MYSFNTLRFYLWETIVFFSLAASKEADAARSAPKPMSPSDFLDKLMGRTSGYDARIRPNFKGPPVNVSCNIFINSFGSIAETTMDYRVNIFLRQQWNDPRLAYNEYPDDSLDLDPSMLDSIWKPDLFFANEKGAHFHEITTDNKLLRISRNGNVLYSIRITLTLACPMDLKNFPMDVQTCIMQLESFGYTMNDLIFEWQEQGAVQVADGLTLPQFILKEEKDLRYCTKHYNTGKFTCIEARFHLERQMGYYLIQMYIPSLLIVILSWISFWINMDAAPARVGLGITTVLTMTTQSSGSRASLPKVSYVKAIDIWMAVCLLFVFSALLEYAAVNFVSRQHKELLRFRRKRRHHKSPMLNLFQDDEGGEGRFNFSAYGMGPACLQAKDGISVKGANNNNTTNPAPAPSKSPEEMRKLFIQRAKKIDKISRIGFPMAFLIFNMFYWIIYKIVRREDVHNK
Description: Displacement of [3H]strychnine from glycine receptor alpha 1 in rat brain synaptic membranes

[3] = species: Homo sapiens; assay: Selectivity ratio of IC50 for recombinant human glycine receptor alpha 1 beta expressed in human tsA201 cells to IC50 for recombinant human glycine receptor alpha 1 expressed in human tsA201 cells; type: cell-based
[4] = target: T3, Glycine receptor subunit alpha-1 (Homo sapiens, UniProt P23415); assay: Antagonist activity at recombinant human glycine receptor alpha 1 expressed in human tsA201 cells assessed as inhibition of glycine-induced receptor activation after 30 mins by FLIPR membrane potential blue assay; type: cell-based
T3 sequence (P23415 whole entry): T2 sequence (P07727 whole entry) with F9L, D27E, D362E, G365A, N396S, A402P, K457Q

[5] = target: T3, Glycine receptor subunit alpha-1; assay: Antagonist activity at recombinant human glycine receptor alpha 1 expressed in HEK293 cells assessed as inhibition of glycine-induced current at -50 mV holding potential by whole cell patch-clamp method; type: cell-based
[6] = target: T1, Glycine receptor (alpha-1/beta); assay: Antagonist activity at recombinant human glycine receptor alpha 1 beta expressed in HEK293 cells assessed as inhibition of glycine-induced current at -50mV holding potential by whole cell patch-clamp method; type: cell-based
[7] = target: T3, Glycine receptor subunit alpha-1; assay: Displacement of [3H]strychnine from recombinant human glycine receptor alpha 1 expressed in HEK293 cell membranes after 30 mins by liquid scintillation counting method

T1 sequence (P23415 whole entry): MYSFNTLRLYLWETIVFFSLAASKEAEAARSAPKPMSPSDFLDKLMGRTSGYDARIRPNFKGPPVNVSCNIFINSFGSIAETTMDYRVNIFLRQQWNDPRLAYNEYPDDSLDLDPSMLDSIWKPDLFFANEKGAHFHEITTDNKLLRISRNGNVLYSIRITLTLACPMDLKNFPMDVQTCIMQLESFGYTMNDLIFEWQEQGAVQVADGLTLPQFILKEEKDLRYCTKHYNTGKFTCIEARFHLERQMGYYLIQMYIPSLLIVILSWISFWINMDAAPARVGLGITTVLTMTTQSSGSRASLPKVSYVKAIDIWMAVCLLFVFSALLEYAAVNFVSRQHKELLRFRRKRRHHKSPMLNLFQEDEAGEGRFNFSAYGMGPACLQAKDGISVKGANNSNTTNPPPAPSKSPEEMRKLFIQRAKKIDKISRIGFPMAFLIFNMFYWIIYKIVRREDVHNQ
T1 sequence (P48167 whole entry): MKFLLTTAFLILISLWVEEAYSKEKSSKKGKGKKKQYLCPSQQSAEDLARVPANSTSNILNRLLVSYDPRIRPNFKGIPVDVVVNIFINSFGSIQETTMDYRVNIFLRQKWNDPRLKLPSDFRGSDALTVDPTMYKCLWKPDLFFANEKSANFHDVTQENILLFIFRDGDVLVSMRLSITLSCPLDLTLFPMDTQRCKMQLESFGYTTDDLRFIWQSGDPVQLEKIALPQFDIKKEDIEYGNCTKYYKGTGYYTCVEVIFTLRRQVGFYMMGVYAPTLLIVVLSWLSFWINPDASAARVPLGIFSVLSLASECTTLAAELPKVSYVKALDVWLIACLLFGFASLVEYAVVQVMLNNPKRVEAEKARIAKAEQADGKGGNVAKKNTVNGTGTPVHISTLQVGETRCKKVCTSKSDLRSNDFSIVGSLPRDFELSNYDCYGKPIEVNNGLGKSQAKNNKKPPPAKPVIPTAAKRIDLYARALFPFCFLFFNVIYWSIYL

## Nc1ccc2c(c1)[C@@]13CCN4CC5=CCO[C@H]6CC(=O)N2[C@H]1[C@H]6[C@H]5C[C@H]43
[1]
  IC50: 270 nM
[2]
  Ki: 18 nM
[3]
  Ratio IC50: 3 to 4
[4]; read-out: IC50
  IC50: 77 nM
[5]
  IC50: 76 nM
[6]
  IC50: 97 nM

## CCC[N+]12CC[C@@]34c5ccccc5N5C(=O)C[C@@H]6OCC=C(C1)[C@H](C[C@@H]32)[C@@H]6[C@H]54 (stereo partly specified)
[1]
  IC50: 13000 nM
[4]; read-out: IC50
  IC50: 10000 nM
[5]
  IC50: 4590 nM
[6]
  IC50: 6530 nM

## O=C1C[C@@H]2OCC=C3CN4CC[C@]56c7ccccc7N1[C@H]5[C@H]2[C@H]3C[C@H]46 [STRYCHNINE]
[1]
  IC50: 180 nM
[2]
  Ki: 12 nM
[7]
  Ki: 23 nM
[4]; read-out: IC50
  IC50: 93 nM
[5]
  IC50: 51 nM
[6]
  IC50: 58 nM

## O=C1/C(=N/OCc2ccccc2)[C@@H]2OCC=C3CN4CC[C@]56c7ccccc7N1[C@H]5[C@H]2[C@H]3C[C@H]46
[1]
  IC50: 310 nM
[4]; read-out: IC50
  IC50: 170 nM

## COC(=O)CO/N=C1/C(=O)N2c3ccccc3[C@@]34CCN5CC6=CCO[C@@H]1[C@@H]([C@H]23)[C@H]6C[C@H]54
[1]
  IC50: 670 nM
[4]; read-out: IC50
  IC50: 220 nM

## COC(=O)CCCCO/N=C1/C(=O)N2c3ccccc3[C@@]34CCN5CC6=CCO[C@@H]1[C@@H]([C@H]23)[C@H]6C[C@H]54
[1]
  IC50: 1500 nM
[4]; read-out: IC50
  IC50: 720 nM

## CCCCO/N=C1/C(=O)N2c3ccccc3[C@@]34CCN5CC6=CCO[C@@H]1[C@@H]([C@H]23)[C@H]6C[C@H]54
[1]
  IC50: 880 nM
[4]; read-out: IC50
  IC50: 370 nM
[4]; read-out: pIC50 (converted)
  IC50: 380 nM

## CO/N=C1/C(=O)N2c3ccccc3[C@@]34CCN5CC6=CCO[C@@H]1[C@@H]([C@H]23)[C@H]6C[C@H]54
[1]
  IC50: 210 nM
[7]
  Ki: 189 nM
[4]; read-out: IC50
  IC50: 100 nM
[5]
  IC50: 75 nM
[6]
  IC50: 56 nM

## O=C1C[C@@]23c4ccccc4N4C(=O)C[C@@H]5OCC=C6CN1[C@H]2C[C@@H]6[C@@H]5[C@H]43
[1]
  IC50: 9800 nM
[4]; read-out: IC50
  IC50: 6900 nM

## CC(C)CO/N=C1/C(=O)N2c3ccccc3[C@@]34CCN5CC6=CCO[C@@H]1[C@@H]([C@H]23)[C@H]6C[C@H]54
[1]
  IC50: 1100 nM
[3]
  Ratio IC50: 3 to 4
[4]; read-out: IC50
  IC50: 260 nM

## CCCO/N=C1/C(=O)N2c3ccccc3[C@@]34CCN5CC6=CCO[C@@H]1[C@@H]([C@H]23)[C@H]6C[C@H]54
[1]
  IC50: 350 nM
[3]
  Ratio IC50: 3 to 4
[7]
  Ki: 241 nM
[4]; read-out: IC50
  IC50: 110 nM
[5]
  IC50: 109 nM
[6]
  IC50: 116 nM

## O=C1/C(=N/OCCc2ccccc2)[C@@H]2OCC=C3CN4CC[C@]56c7ccccc7N1[C@H]5[C@H]2[C@H]3C[C@H]46
[1]
  IC50: 780 nM
[4]; read-out: IC50
  IC50: 690 nM
[4]; read-out: pIC50 (converted)
  IC50: 708 nM

## CCCCCO/N=C1/C(=O)N2c3ccccc3[C@@]34CCN5CC6=CCO[C@@H]1[C@@H]([C@H]23)[C@H]6C[C@H]54
[1]
  IC50: 710 nM
[3]
  Ratio IC50: 3 to 4
[4]; read-out: IC50
  IC50: 250 nM

## C=CCO/N=C1/C(=O)N2c3ccccc3[C@@]34CCN5CC6=CCO[C@@H]1[C@@H]([C@H]23)[C@H]6C[C@H]54
[1]
  IC50: 150 nM
[7]
  Ki: 370 nM
[4]; read-out: IC50
  IC50: 95 nM
[5]
  IC50: 49 nM
[6]
  IC50: 46 nM

## C#CCO/N=C1/C(=O)N2c3ccccc3[C@@]34CCN5CC6=CCO[C@@H]1[C@@H]([C@H]23)[C@H]6C[C@H]54
[1]
  IC50: 240 nM
[4]; read-out: IC50
  IC50: 52 nM
[5]
  IC50: 59 nM
[6]
  IC50: 43 nM

## CCC(=O)Nc1ccc2c(c1)[C@@]13CCN4CC5=CCO[C@H]6CC(=O)N2[C@H]1[C@H]6[C@H]5C[C@H]43
[1]
  IC50: 940 nM
[7]
  Ki: 67 nM
[4]; read-out: IC50
  IC50: 540 nM
[5]
  IC50: 201 nM
[6]
  IC50: 311 nM
